From paper PMC7315563, “Bioactive fluorenes. Part III: 2,7-dichloro-9H-fluorene-based thiazolidinone and azetidinone analogues as anticancer and antimicrobial against multidrug resistant strains agents” (BMC Chemistry, 2020)
Values after ≈ are worked out from the molar mass of the structure shown.

Legend:
[1] = system: Staphylococcus aureus (S. aureus), multidrug resistant clinical isolate; test: agar well diffusion assay; assay type: cell-based; details: Staphylococcus aureus; S. aureus; 500 µg/mL of tested compound; 24 h
Description: (§1) All microbial strains were kindly provided from the department of Medical Microbiology and Immunology faculty of Medicine Assiut University, these clinical isolates were obtained from clinical cases of infections admitted to Assiut University hospital as urinary tract infections, corneal ulcers, bacterial and fungal pneumonia, otomycosis, oral thrush and wound infections.
(§2) The clinical isolates used were multidrug resistant strains, they were resistant to β lactam (penicillin, amoxacillin, oxacillin), cephalosporins (cefazolin, cefaclor and cefepime) and macrolides (erythromycin and clarithromycin), they included Gram positive bacteria as Staphylococcus aureus (S. aureus), Methicillin-resistant Staphylococcus aureus (MRSA), Streptococcus pneumoniae (S. pneumoniae), and Gram negative bacteria as Escherichia coli (E. coli), Klebsiella pneumoniae (K. pneumoniae), Pseudomonas aeruginosa (P. aeruginosa), and Acinetobacter baumannii (A. baumannii). The fungal strains that were tested are Aspergillus flavus (A. flavus), A. niger (A. niger) and Candida albicans (C. albicans).
(§3) The antimicrobial activity of the fluorene derivatives was initially evaluated by agar well diffusion assay. Mueller–Hinton agar (CM0337) was poured into Petri dishes at 50–60 °C and left to solidify for 15 min. Subsequently, overnight microbial suspensions of tested strains was adjusted to turbidity of 0.5 McFarland Standard, which equals to 1–2 × 10^8 CFU/mL for bacteria and 1–5 × 10^6 for fungi. The microbial inoculums were then diluted in 1:100 ratio in case of bacteria and 1:10 ratio in case of fungi in order to get 1–5 × 10^5 CFU/mL. a sterile cotton swab was dipped into the adjusted microbial suspension and the Mueller–Hinton agar plates were inoculated by evenly streaking cotton swab over the agar medium. Then wells with a diameter of 0.5 cm were cut in the medium with a sterile cork borer. Stock solutions of the flourene derivatives were diluted in DMSO 1% to get 500 μg/mL concentrations. The tested flourene derivatives and controls (50 μL) were dispensed into the wells. The plates were incubated for 24 h at 37 °C for bacteria and C. albicans while at 25 °C for A. falvus and A. niger. The diameters of zones of inhibition (ZOI) around the wells were measured in mm. Following control agents were used: positive control agents—vancomycin (50 μg/mL) for Gram positive bacteria, gentamicin (10 μg/mL) (for Gram negative bacteria) and fluconazole 25 μg/mL for fungi and negative control agent is 1% DMSO.

[2] = system: MDA-MB-231 human breast cancer cells; test: cell viability assay (MTT); assay type: cell-based; details: 24 h; for viability at 1 µg/mL: read-out: Validity (%) for sample concentrations (µg/mL) 1; for viability at 10 µg/mL: read-out: Validity (%) for sample concentrations (µg/mL) 10; for viability at 31.25 µg/mL: read-out: Validity (%) for sample concentrations (µg/mL) 31.25; for viability at 62.5 µg/mL: read-out: Validity (%) for sample concentrations (µg/mL) 62.5; for viability at 125 µg/mL: read-out: Validity (%) for sample concentrations (µg/mL) 125; for viability at 250 µg/mL: read-out: Validity (%) for sample concentrations (µg/mL) 250; for viability at 500 µg/mL: read-out: Validity (%) for sample concentrations (µg/mL) 500
Protocol: (§4) WI-38 normal lung fibroblast cells, A549 lung cancer cells, and MDA-MB-231 breast cancer cells were obtained from VACSERA—Cell Culture Unit, Cairo, Egypt. The cell lines were originally obtained from the American Tissue Culture Collection (ATCC). WI-38, A549, and MDA-MB-231 cell lines were cultured in RPMI-1640 medium supplemented with 10% inactivate fetal bovine serum (FBS) and 1% penicillin/streptomycin were bought (Gibco, Invitrogen, CA). WI-38, A549, and MDA-MB-231 cells were seeded into 96-well plates (at a density of 5000 cells/well). On the following day, cells were treated with different concentrations (0, 1, 10, 31.25, 62.5, 125, 250, 500 µg/mL) of 16 fluorene derivatives in fresh medium and incubated for another 24 h. Cell viability was then assessed using the MTT assay (Sigma Aldrich, St. Louis, MO, USA), and the absorbance was read at 570 nm using an ELISA microplate reader (Molecular Devices, Downingtown, PA, USA).

[3] = system: WI-38 human normal fibroblast cells; test: cell viability assay (MTT); assay type: cell-based; details: 24 h; for viability at 31.25 µg/mL: read-out: Validity (%) for sample concentrations (µg/mL) 31.25; for viability at 62.5 µg/mL: 62.50 µg/mL, read-out: Validity (%) for sample concentrations (µg/mL) 62.50; for viability at 125 µg/mL: read-out: Validity (%) for sample concentrations (µg/mL) 125; for viability at 250 µg/mL: read-out: Validity (%) for sample concentrations (µg/mL) 250; for viability at 500 µg/mL: read-out: Validity (%) for sample concentrations (µg/mL) 500
Protocol: as §4

[4] = system: A549 human lung cancer cells; test: cell viability assay (MTT); assay type: cell-based; details: 24 h; for viability at 1 µg/mL: read-out: Validity (%) for sample concentrations (µg/mL) 1; for viability at 10 µg/mL: read-out: Validity (%) for sample concentrations (µg/mL) 10; for viability at 31.25 µg/mL: read-out: Validity (%) for sample concentrations (µg/mL) 31.25; for viability at 62.5 µg/mL: 62.50 µg/mL, read-out: Validity (%) for sample concentrations (µg/mL) 62.50; for viability at 125 µg/mL: read-out: Validity (%) for sample concentrations (µg/mL) 125; for viability at 250 µg/mL: read-out: Validity (%) for sample concentrations (µg/mL) 250; for viability at 500 µg/mL: read-out: Validity (%) for sample concentrations (µg/mL) 500; for viability at 1000 µg/mL: read-out: Validity (%) for sample concentrations (µg/mL) 1000
Protocol: as §4, with “On the following day, cells were treated with different concentrations (0, 1, 10, 31.25, 62.5, 125, 250, 500 µg/mL) of 16 fluorene derivatives in fresh medium and incubated for another 24 h.” left out

[5] = system: A549 cells; test: FACS analysis, Annexin V and PI staining; assay type: cell-based, human; details: 24 h, 5g 500, 6c 85, 6d 117, 6k 200 µg/mL
Protocol: (§5) To uncover the mechanism of cell death for the compounds 5h, 6c, 6d and 6k on WI-38, A549, and MDA-MB-231 cells; Annexin v and propedium Iodide (PI) were used. In brief, WI-38, A549, MDA-MB-231 cells were cultured in 10 tissue culture dish with initial number 4 × 10^5 cell/Ml in RPMI growth media. In the following day, cells were treated with 6c, 6d and 6k as the following; (0.0, 500 μg/mL form each drug for WI-38 treatment, 0.0, 85, 117 and 200 μg/mL; respectively, for […] and 0.0, 250 from each for MDA-MB-231 cells treatment). After 24 h incubations, cells were washed and trypsinized and suspended in 50 μL 1X Annexin v binding buffer followed by adding 5 μL FITC Annexin V and incubated for 15 min at room temperature then 5 μL of PI were added to each tube. Finally, 400 μL of 1X Annexin v binding buffer were added to each tube and analyzed using Becton-Dickinson FACS Caliber.

[6] = system: WI-38 cells; test: FACS analysis, Annexin V and PI staining; assay type: cell-based, human; details: 24 h, 5g 1000 µg/mL, 6c, 6d, 6k 500 µg/mL
Protocol: as §5

[7] = system: MDA-MB-231 cells; test: FACS analysis, Annexin V and PI staining; assay type: cell-based, human; details: 24 h, 5g 500, 6c 105, 6d 170, 6k 130 µg/mL
Protocol: To uncover the mechanism of cell death for the compounds 5h, 6c, 6d and 6k on WI-38, A549, and MDA-MB-231 cells; Annexin v and propedium Iodide (PI) were used. In brief, WI-38, A549, MDA-MB-231 cells were cultured in 10 tissue culture dish with initial number 4 × 10^5 cell/Ml in RPMI growth media. […] After 24 h incubations, cells were washed and trypsinized and suspended in 50 μL 1X Annexin v binding buffer followed by adding 5 μL FITC Annexin V and incubated for 15 min at room temperature then 5 μL of PI were added to each tube. Finally, 400 μL of 1X Annexin v binding buffer were added to each tube and analyzed using Becton-Dickinson FACS Caliber.

[8] = system: Klebsiella pneumoniae (K. pneumoniae), multidrug resistant clinical isolate; test: agar well diffusion assay; assay type: cell-based; details: 24 h, 500 µg/mL of tested compound
Description: as §1, §2, §3

Compound O=C(O)c1ccc(C2SCC(=O)N2c2nc(-c3cc(Cl)cc4c3-c3ccc(Cl)cc3C4)cs2)cc1 (centres unmarked) [5g, 4-(3-(4-(2,7-Dichloro-9H-fluoren-4-yl)thiazol-2-yl)-4-oxothiazolidin-2-yl)benzoic acid] has a zone of inhibition at 500 µg/mL [1] of 10 mm, a viability at 1 µg/mL [2] of 92.6% and a viability at 10 µg/mL [2] of 87.3%. It also gave a viability at 31.25 µg/mL [2] of 80.9%, a viability at 62.5 µg/mL [2] of 72.2% and a viability at 125 µg/mL [2] of 67.7%. For the same compound, the viability at 250 µg/mL [2] was 63.2%, the viability at 500 µg/mL [2] was 58.5% and the IC50 [2] was > 500 µg/mL. For the same compound, the viability at 31.25 µg/mL [3] was 96.7%, the viability at 62.5 µg/mL [3] was 95.1% and the viability at 125 µg/mL [3] was 90.2%. For the same compound, the viability at 250 µg/mL [3] was 85.8%, the viability at 500 µg/mL [3] was 79.2% and the IC50 [3] was > 500 µg/mL. For the same compound, the viability at 1 µg/mL [4] was 93.7%, the viability at 10 µg/mL [4] was 90.3% and the viability at 31.25 µg/mL [4] was 88.7%. The viability at 62.5 µg/mL [4] was 78.6%, the viability at 125 µg/mL [4] was 84.1% and the viability at 250 µg/mL [4] was 75.7%. For the same compound, the viability at 500 µg/mL [4] was 56.3%, the viability at 1000 µg/mL [4] was 16.8% and the IC50 [4] was 572 µg/mL (≈ 1060 µM). The “apoptotic cell death (of total cell number)” value (shortened to “apoptotic cell death”) [5] was 1.25%, the “necrotic cell death (of total cell number)” value (“necrotic cell death” below) [5] was 16.7% and the “apoptotic cell death” value [6] was 1.5%. The “necrotic cell death” value [6] was 15.8%, the “apoptotic cell death” value [7] was 1.34% and the “necrotic cell death” value [7] was 14.1%.

For O=C1CSC(c2ccnc3ccccc23)N1c1nc(-c2cc(Cl)cc3c2-c2ccc(Cl)cc2C3)cs1 (centres unmarked) [5n, 3-(4-(2,7-Dichloro-9H-fluoren-4-yl)thiazol-2-yl)-2-(quinolin-4-yl)thiazolidin-4-one], the zone of inhibition at 500 µg/mL [8] was 5 mm, the zone of inhibition at 500 µg/mL [1] was 7 mm and the viability at 1 µg/mL [2] was 98.7%. For the same compound, the viability at 10 µg/mL [2] was 91%, the viability at 31.25 µg/mL [2] was 92.8% and the viability at 62.5 µg/mL [2] was 90.6%. It also gave a viability at 125 µg/mL [2] of 76.8%, a viability at 250 µg/mL [2] of 58.7% and a viability at 500 µg/mL [2] of 27.2%. The IC50 [2] was 315 µg/mL (≈ 576 µM), the viability at 31.25 µg/mL [3] was 54.3% and the viability at 62.5 µg/mL [3] was 51.5%. It also gave a viability at 125 µg/mL [3] of 50.8%, a viability at 250 µg/mL [3] of 46.4% and a viability at 500 µg/mL [3] of 40.5%. It also gave an IC50 [3] of 130 µg/mL (≈ 238 µM), a viability at 1 µg/mL [4] of 94.2% and a viability at 10 µg/mL [4] of 91.2%. The viability at 31.25 µg/mL [4] was 83.1%, the viability at 62.5 µg/mL [4] was 78.6% and the viability at 125 µg/mL [4] was 70.7%. The viability at 250 µg/mL [4] was 58.9%, the viability at 500 µg/mL [4] was 27.3% and the viability at 1000 µg/mL [4] was 8.02%. For the same compound, the IC50 [4] was 380 µg/mL (≈ 695 µM) and the melting point was 204 to 206 °C.
